Marks after values point to notes of the source that are not given here.
How the values were obtained:
Type in all cases: in vivo
[1] = system: Septoria tritici (the causal agent of wheat leaf blotch); test: Test B: wheat leaf blotch, preventive spray on wheat seedlings, visual disease rating; conditions: wheat leaf blotch, preventive spray on wheat seedlings
Procedure, shortened: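 Wheat seedlings sprayed to run-off with compound suspension (acetone/water with 250 ppm Trem 014; 200 ppm ≈ 800 g/ha, some at 40 ppm), inoculated next day with Septoria tritici spores. 48 h saturated humidity at 24 °C, then 19 days at 20 °C; visual rating, 100 = full control.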

[2] = system: Botrytis cinerea (the causal agent of tomato Botrytis); test: Test C: tomato Botrytis, preventive spray on tomato seedlings, visual disease rating; conditions: tomato Botrytis, preventive spray on tomato seedlings
Procedure, shortened: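 Test suspension (acetone/water with 250 ppm Trem 014; 200 ppm equivalent to 800 g/ha) sprayed to run-off on tomato seedlings; B. cinerea spores inoculated next day. After 48 h saturated humidity at 20° C then 3 days at 24° C, disease rated visually as % control relative to untreated controls (0–100).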

[3] = system: Blumeria graminis f. sp. tritici (also known as Erysiphe graminis f. sp. tritici, the causal agent of wheat powdery mildew); test: Test D: wheat powdery mildew, preventive spray on wheat seedlings, visual disease rating; conditions: wheat powdery mildew, preventive spray on wheat seedlings
Procedure, shortened: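 Compound suspended in acetone/water (50/50) with 250 ppm Trem 014 and sprayed to run-off on wheat seedlings (200 ppm ≈ 800 g/ha), then inoculated next day with spore dust. Disease rated visually after 8 days at 20 °C as % control relative to untreated plants (0-100).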

[4] = system: Puccinia recondite f. sp. tritici (the causal agent of wheat leaf rust); test: Test A: wheat leaf rust, preventive spray on wheat seedlings, visual disease rating; conditions: wheat leaf rust, preventive spray on wheat seedlings
Procedure, shortened: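 Wheat seedlings were sprayed to run-off with compound suspended in acetone/water containing 250 ppm Trem 014 (200 ppm ≈ 800 g/ha; some at 40 ppm). Puccinia recondite spores were inoculated the next day. Plants were held 24 h saturated at 20° C, then 7 days at 20° C, and disease control was rated visually on a 0–100 scale against controls.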

[5] = asterisk: 40 ppm test suspension
[6] = no asterisk (standard test suspension concentration, not 40 ppm)

SMILES | Test B rating (100 = 100% disease control, 0 = no disease control relative to the controls) [1, 5] | Test C rating (100 = 100% disease control, 0 = no disease control relative to the controls) [2, 5] | Test D rating (100 = 100% disease control, 0 = no disease control relative to the controls) [3, 5] | Test A rating (100 = 100% disease control, 0 = no disease control relative to the controls) [4, 5] | Test B rating (100 = 100% disease control, 0 = no disease control relative to the controls) [1, 6] | Test C rating (100 = 100% disease control, 0 = no disease control relative to the controls) [2, 6] | Test D rating (100 = 100% disease control, 0 = no disease control relative to the controls) [3, 6] | Test A rating (100 = 100% disease control, 0 = no disease control relative to the controls) [4, 6]
Cc1ncc(C(O)c2ccc(F)cc2Br)n1-c1ccc(F)cc1F (racemic) [compound 301] | 19* % | 24* % | 0* % | 97* % |  |  |  | 
Cc1nc(Cl)n(-c2c(F)cc(F)cc2Br)c1C(O)c1ccc(F)cc1F (single isomer, unassigned) [compound 16] |  |  |  |  | 100% | 100% | 100% | 100%
Cc1nc(Cl)n(-c2c(F)cc(F)cc2Br)c1C(O)c1ccc(F)cc1F (single isomer, unassigned) [compound 17] |  |  |  |  | 100% | 100% | 100% | 100%
OC(c1ccc(F)cc1F)c1c(Cl)nc(Cl)n1-c1ccc(F)cc1Cl (single isomer, unassigned) [compound 19] |  |  |  |  | 100% | 100% | 98% | 100%
OC(c1ccc(F)cc1F)c1c(Cl)nc(Cl)n1-c1ccc(F)cc1Cl (single isomer, unassigned) [compound 20] |  |  |  |  | 100% | 100% | 100% | 100%
OC(c1ccc(F)cc1F)c1c(Cl)nc(Cl)n1-c1ccc(Cl)cc1Cl (single isomer, unassigned) [compound 21] |  |  |  |  | 100% | 100% | 69% | 100%
OC(c1ccc(F)cc1F)c1c(Cl)nc(Cl)n1-c1ccc(Cl)cc1Cl (single isomer, unassigned) [compound 22] |  |  |  |  | 100% | 98% | 0% | 100%
Cc1nc(Cl)n(-c2ccc(F)cc2Cl)c1C(O)c1ccc(F)cc1F (single isomer, unassigned) [compound 27] |  |  |  |  | 100% | 100% | 99% | 100%
Cc1nc(Cl)n(-c2ccc(F)cc2Cl)c1C(O)c1ccc(F)cc1F (single isomer, unassigned) [compound 28] |  |  |  |  | 100% | 100% | 71% | 100%
OC(c1ccc(Cl)cc1)c1c(Cl)nc(Cl)n1-c1ccc(F)cc1Cl (single isomer, unassigned) [compound 47] |  |  |  |  | 100% | 99% | 0% | 100%
OC(c1ccc(Cl)cc1)c1c(Cl)nc(Cl)n1-c1ccc(F)cc1Cl (single isomer, unassigned) [compound 48] |  |  |  |  | 100% | 100% | 85% | 100%
Cc1cc(F)ccc1C(O)c1c(Cl)nc(Cl)n1-c1ccc(F)cc1Cl (single isomer, unassigned) [compound 50] |  |  |  |  | 100% | 100% | 90% | 100%
Cc1cc(F)ccc1C(O)c1c(Cl)nc(Cl)n1-c1ccc(F)cc1Cl (single isomer, unassigned) [compound 51] |  |  |  |  | 100% | 99% | 47% | 100%
OC(c1ccc(F)cc1F)c1c(Cl)nc(Cl)n1-c1ccc(F)cc1F (single isomer, unassigned) [compound 78] |  |  |  |  | 100% | 99% | 82% | 100%
OC(c1ccc(F)cc1F)c1c(Cl)nc(Cl)n1-c1ccc(F)cc1F (single isomer, unassigned) [compound 79] |  |  |  |  | 100% | 98% | 0% | 100%
Cc1cc(F)ccc1C(O)c1c(Cl)nc(Cl)n1-c1ccc(Cl)cc1Cl (single isomer, unassigned) [compound 84] |  |  |  |  | 100% | 0% | 0% | 96%
Cc1cc(F)ccc1C(O)c1c(Cl)nc(Cl)n1-c1ccc(Cl)cc1Cl (single isomer, unassigned) [compound 85] |  |  |  |  | 100% | 88% | 87% | 99%

Reference: patent publication US20130143929A1, “FUNGICIDAL IMIDAZOLES” (EI DU PONT DE NEMOURS AND COMPANY, priority 2010, published 2013)
